The text below walks through data of ChEMBL document CHEMBL1143846, “Clinical pharmacodynamics of meropenem in patients with lower respiratory tract infections” (Antimicrob Agents Chemother, 2007).

≈ marks a conversion by molar mass, not a printed value.

Data set [1] is described as follows: Ratio of fCmin to MIC in patient with lower respiratory tract infection. It is filed as ADME. The following applies: human.
Data set [2] is filed under the species Homo sapiens. Nature of the data set: fAUC in patient with lower respiratory tract infection. The following applies: in vivo. It is filed as ADME, organism-based.
The nature of data set [3]: Ratio of fAUC to MIC in patient with lower respiratory tract infection. It counts as ADME. The following applies: human.
The species named for data set [4] is Homo sapiens. The data set can be described thus: fCmax in patient with lower respiratory tract infection. The following applies: in vivo. It is filed as ADME, organism-based.
In the next data set the test system is Pseudomonas aeruginosa. Nature of the data set: Antimicrobial activity against Pseudomonas aeruginosa. It counts as functional.
The species entered for data set [5] is Homo sapiens. The data set can be described thus: ft>MIC in patient with lower respiratory tract infection. The following applies: in vivo. It counts as ADME, organism-based.
In the next data set the test system is Haemophilus influenzae. Nature of the data set: Antimicrobial activity against Haemophilus influenzae. It is filed as functional.
The species entered for data set [6] is Homo sapiens. Nature of the data set: fCmin in patient with lower respiratory tract infection. It counts as ADME, organism-based. The following applies: in vivo.
The test system of another data set is Streptococcus pneumoniae. The data set can be described thus: Antimicrobial activity against Streptococcus pneumoniae. It is filed as functional.
The test system of another data set is Klebsiella pneumoniae. Nature of the data set: Antimicrobial activity against Klebsiella pneumoniae. It counts as functional.
Another data set relates to Staphylococcus aureus. Nature of the data set: Antimicrobial activity against methicillin-susceptible Staphylococcus aureus. It counts as functional.
Data set [7] can be described thus: Ratio of fCmax to MIC in patient with lower respiratory tract infection. The following applies: human. It is filed as ADME.

Consider `C[C@@H](O)[C@H]1C(=O)N2C(C(=O)O)=C(S[C@@H]3CN[C@H](C(=O)N(C)C)C3)[C@H](C)[C@H]12` [MEROPENEM], for which the Ratio in data set [1] was 34.24; in data set [3], 6683.38; in [7], 1427.66. Also, the fAUC in the data set filed under Homo sapiens [2] was found to be 157.43 µg·h/mL. In the data set filed under Homo sapiens [4], this compound had a fCmax of 32.27 µg/mL. Also, the MIC with Pseudomonas aeruginosa, in the data set on Haemophilus influenzae, against Streptococcus pneumoniae, against Klebsiella pneumoniae and against Staphylococcus aureus was 0.06 µg/mL (≈ 0.156 µM) each time. Further, in the data set filed under Homo sapiens [5], the “fT>MIC” value came to 91%. This compound also yielded a fCmin in the data set listed under Homo sapiens [6] of 0.91 µg/mL.
